Test results as given in ChEMBL document CHEMBL3994622, “Design and synthesis of new RAF kinase-inhibiting antiproliferative quinoline derivatives. Part 2: Diarylurea derivatives” (Eur J Med Chem, 2017).

Tests used:
UACC-257 = assay: Growth inhibition of human UACC257 cells incubated for 48 hrs by sulforhodamine B assay; type: functional; conditions: UACC-257, 48 h
HL-60(TB) = assay: Growth inhibition of human HL-60(TB) cells incubated for 48 hrs by sulforhodamine B assay; type: functional; conditions: HL-60, 48 h
PC-3 = assay: Growth inhibition of human PC3 cells incubated for 48 hrs by sulforhodamine B assay; type: functional; conditions: PC-3, 48 h
SF-295 = assay: Growth inhibition of human SF295 cells incubated for 48 hrs by sulforhodamine B assay; type: functional; conditions: SF-295, 48 h
SF-539 = assay: Growth inhibition of human SF539 cells incubated for 48 hrs by sulforhodamine B assay; type: functional; conditions: SF-539, 48 h
BT-549 = assay: Growth inhibition of human BT549 cells incubated for 48 hrs by sulforhodamine B assay; type: functional; conditions: BT-549, 48 h
OVCAR-3 = assay: Growth inhibition of human OVCAR3 cells incubated for 48 hrs by sulforhodamine B assay; type: functional; conditions: OVCAR-3, 48 h
DU-145 = assay: Growth inhibition of human DU145 cells incubated for 48 hrs by sulforhodamine B assay; type: functional; conditions: DU-145, 48 h
UO-31 = assay: Growth inhibition of human UO31 cells incubated for 48 hrs by sulforhodamine B assay; type: functional; conditions: UO-31, 48 h
HT-29 = assay: Growth inhibition of human HT-29 cells incubated for 48 hrs by sulforhodamine B assay; type: functional; conditions: HT-29, 48 h
TK-10 = assay: Growth inhibition of human TK10 cells incubated for 48 hrs by sulforhodamine B assay; type: functional; conditions: TK-10, 48 h
K562 = assay: Growth inhibition of human K562 cells incubated for 48 hrs by sulforhodamine B assay; type: functional; conditions: K562, 48 h
ACHN = assay: Growth inhibition of human ACHN cells incubated for 48 hrs by sulforhodamine B assay; type: functional
A549 = assay: Growth inhibition of human A549/ATCC cells incubated for 48 hrs by sulforhodamine B assay; type: functional; conditions: A549, 48 h
HOP-92 = assay: Growth inhibition of human HOP92 cells incubated for 48 hrs by sulforhodamine B assay; type: functional; conditions: HOP-92, 48 h
[1] = target: RAF proto-oncogene serine/threonine-protein kinase (Homo sapiens, UniProt P04049); assay: Inhibition of human c-RAF at 10 uM using MEK1 as substrate in presence of [33P]ATP by Hotspot assay relative to control
CCRF-CEM = assay: Growth inhibition of human CCRF-CEM cells incubated for 48 hrs by sulforhodamine B assay; type: functional
SR = assay: Growth inhibition of human SR cells incubated for 48 hrs by sulforhodamine B assay; type: functional
OVCAR-8 = assay: Growth inhibition of human OVCAR8 cells incubated for 48 hrs by sulforhodamine B assay; type: functional; conditions: OVCAR-8, 48 h
SNB-75 = assay: Growth inhibition of human SNB75 cells incubated for 48 hrs by sulforhodamine B assay; type: functional; conditions: SNB-75, 48 h
NCI-H23 = assay: Growth inhibition of human NCI-H23 cells incubated for 48 hrs by sulforhodamine B assay; type: functional; conditions: NCI-H23, 48 h
MDA-MB-231 = assay: Growth inhibition of human MDA-MB-231 cells incubated for 48 hrs by sulforhodamine B assay; type: functional; conditions: MDA-MB-231, 48 h
RXF 393 = assay: Growth inhibition of human RXF393 cells incubated for 48 hrs by sulforhodamine B assay; type: functional; conditions: RXF 393, 48 h
RPMI-8226 = assay: Growth inhibition of human RPMI8226 cells incubated for 48 hrs by sulforhodamine B assay; type: functional; conditions: RPMI-8226, 48 h
T47D = assay: Growth inhibition of human T47D cells incubated for 48 hrs by sulforhodamine B assay; type: functional
SK-MEL-28 = assay: Growth inhibition of human SK-MEL-28 cells incubated for 48 hrs by sulforhodamine B assay; type: functional; conditions: SK-MEL-28, 48 h
U-251 = assay: Growth inhibition of human U251 cells incubated for 48 hrs by sulforhodamine B assay; type: functional; conditions: U-251, 48 h
HCT-116 = assay: Growth inhibition of human HCT116 cells incubated for 48 hrs by sulforhodamine B assay; type: functional; conditions: HCT-116, 48 h
KM12 = assay: Growth inhibition of human KM12 cells incubated for 48 hrs by sulforhodamine B assay; type: functional; conditions: KM12, 48 h
LOX IMVI = assay: Growth inhibition of human LOXIMVI cells incubated for 48 hrs by sulforhodamine B assay; type: functional
SW-620 = assay: Growth inhibition of human SW620 cells incubated for 48 hrs by sulforhodamine B assay; type: functional; conditions: SW-620, 48 h
786-0 = assay: Growth inhibition of human 786-0 cells incubated for 48 hrs by sulforhodamine B assay; type: functional; conditions: 786-0, 48 h
[2] = read-out: LC50 (the source's name)

Chain of RAF proto-oncogene serine/threonine-protein kinase (P04049 whole entry): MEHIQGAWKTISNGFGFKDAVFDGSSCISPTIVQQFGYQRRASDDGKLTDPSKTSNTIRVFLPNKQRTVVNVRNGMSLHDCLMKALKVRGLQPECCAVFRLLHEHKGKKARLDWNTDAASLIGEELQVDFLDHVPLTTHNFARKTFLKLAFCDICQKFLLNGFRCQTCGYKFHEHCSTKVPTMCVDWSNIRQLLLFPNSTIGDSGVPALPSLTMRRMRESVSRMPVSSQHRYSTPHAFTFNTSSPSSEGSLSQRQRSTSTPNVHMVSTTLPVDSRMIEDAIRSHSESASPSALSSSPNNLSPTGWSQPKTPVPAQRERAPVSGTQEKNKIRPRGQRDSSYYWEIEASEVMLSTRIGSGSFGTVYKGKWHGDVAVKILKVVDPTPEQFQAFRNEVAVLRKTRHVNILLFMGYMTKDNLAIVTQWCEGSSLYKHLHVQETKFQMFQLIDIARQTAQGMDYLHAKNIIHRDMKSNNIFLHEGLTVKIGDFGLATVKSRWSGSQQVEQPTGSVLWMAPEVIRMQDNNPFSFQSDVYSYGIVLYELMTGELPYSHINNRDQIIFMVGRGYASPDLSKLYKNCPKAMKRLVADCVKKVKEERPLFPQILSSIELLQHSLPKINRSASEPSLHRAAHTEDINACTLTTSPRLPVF

Compound: COc1cc2cc(Oc3ccc(NC(=O)Nc4ccc(Cl)c(C(F)(F)F)c4)cc3)c(C)nc2cc1OC
- GI50 (UACC-257): 0.71 µM
- TGI (UACC-257): 2.36 µM
- CC50 (UACC-257; [2]): 19.6 µM
- GI50 (HL-60(TB)): 1.13 µM
- TGI (HL-60(TB)): 3.12 µM
- CC50 (HL-60(TB); [2]): > 32.5 µM
- GI50 (PC-3): 0.781 µM
- TGI (PC-3): 2.96 µM
- CC50 (PC-3; [2]): > 32.5 µM
- GI50 (SF-295): 0.899 to 0.9 µM
- TGI (SF-295): 2.91 µM
- CC50 (SF-295; [2]): 22.2 µM
- GI50 (SF-539): 1.96 µM
- TGI (SF-539): 8.39 µM
- CC50 (SF-539; [2]): > 32.5 µM
- GI50 (BT-549): 0.981 µM
- TGI (BT-549): 4.59 µM
- CC50 (BT-549; [2]): 20.5 µM
- GI50 (OVCAR-3): 1.16 µM
- TGI (OVCAR-3): 4.45 µM
- CC50 (OVCAR-3; [2]): 14 µM
- GI50 (DU-145): 1.24 µM
- TGI (DU-145): 5.11 µM
- CC50 (DU-145; [2]): 19.1 µM
- GI50 (UO-31): 0.924 µM
- TGI (UO-31): 2.38 µM
- CC50 (UO-31; [2]): 13.4 µM
- GI50 (HT-29): 1.2 µM
- TGI (HT-29): 3.98 µM
- CC50 (HT-29; [2]): 14.2 µM
- GI50 (TK-10): 1.32 µM
- TGI (TK-10): 6.19 µM
- CC50 (TK-10; [2]): > 32.5 µM
- GI50 (K562): 1.11 µM
- LC50 (concentration killing 50% of cells) (K562): 23.6 µM
- TGI (K562): 4.81 µM
- GI50 (ACHN): 1.07 µM
- TGI (ACHN): 4 µM
- CC50 (ACHN; [2]): 13.7 µM
- GI50 (A549): 1 µM
- TGI (A549): 4.16 µM
- CC50 (A549; [2]): 15.1 µM
- GI50 (HOP-92): 0.682 µM
- LC50 (HOP-92): 10.3 µM
- TGI (HOP-92): 2.05 µM
- inhibition [1]: 99.7%
- GI50 (CCRF-CEM): 1.01 µM
- TGI (CCRF-CEM): 3.09 µM
- CC50 (CCRF-CEM; [2]): > 32.5 µM
- GI50 (SR): 0.831 µM
- TGI (SR): 2.65 µM
- CC50 (SR; [2]): > 32.5 µM
- GI50 (OVCAR-8): 1.04 µM
- TGI (OVCAR-8): 4.55 µM
- CC50 (OVCAR-8; [2]): > 32.5 µM
- GI50 (SNB-75): 1.03 µM
- TGI (SNB-75): 4.9 µM
- CC50 (SNB-75; [2]): > 32.5 µM
- GI50 (NCI-H23): 0.991 µM
- TGI (NCI-H23): 3.79 µM
- CC50 (NCI-H23; [2]): 15.8 µM
- GI50 (MDA-MB-231): 0.681 µM
- TGI (MDA-MB-231): 1.84 µM
- CC50 (MDA-MB-231; [2]): 9.6 µM
- GI50 (RXF 393): 1.33 µM
- TGI (RXF 393): 4.21 µM
- CC50 (RXF 393; [2]): 15 µM
- GI50 (RPMI-8226): 0.636 to 0.64 µM
- LC50 (lethal concentration, 50% cell kill) (RPMI-8226): > 32.5 µM
- TGI (RPMI-8226): 1.65 µM
- GI50 (T47D): 1.21 µM
- TGI (T47D): 7.9 µM
- CC50 (T47D; [2]): > 32.5 µM
- GI50 (SK-MEL-28): 1.41 µM
- TGI (SK-MEL-28): 5.45 µM
- CC50 (SK-MEL-28; [2]): 14.4 µM
- GI50 (U-251): 1.03 µM
- TGI (U-251): 3.78 µM
- CC50 (U-251; [2]): 12.6 µM
- GI50 (HCT-116): 0.994 µM
- LC50 (50% lethal concentration) (HCT-116): 14 µM
- TGI (HCT-116): 3.84 µM
- GI50 (KM12): 1.07 µM
- TGI (KM12): 3.85 µM
- CC50 (KM12; [2]): 13.8 µM
- GI50 (LOX IMVI): 1.22 µM
- TGI (LOX IMVI): 4.16 µM
- CC50 (LOX IMVI; [2]): 11.6 µM
- GI50 (SW-620): 1.25 µM
- LC50 (SW-620): 14 µM
- TGI (SW-620): 4.57 µM
- GI50 (786-0): 1.17 µM
- TGI (786-0): 4.97 µM
- CC50 (786-0; [2]): 18.8 µM
